Test results from ChEMBL document CHEMBL2331278, “Synthesis, pharmacological evaluation and QSAR modeling of mono-substituted 4-phenylpiperidines and 4-phenylpiperazines” (Eur J Med Chem, 2013).

Key:
[1] = system: Rattus norvegicus; experiment: Reduction in DOPAC level in Sprague-Dawley rat striatum at 50 umol/kg, sc measured after 1 hr relative to control; format: functional; parameters: scale not given: the % may be the effect or the level left
[2] = system: Rattus norvegicus; experiment: Reduction in DOPAC level in Sprague-Dawley rat striatum at 100 umol/kg, sc measured after 1 hr relative to control; format: functional
[3] = target: T1, Amine oxidase [flavin-containing] A (Rattus norvegicus, UniProt P21396); experiment: Displacement of [3H]Ro 41-1049 from rat MAO-A receptor expressed in HEK293 cells; format: cell-based
T1 sequence (P21396 whole entry): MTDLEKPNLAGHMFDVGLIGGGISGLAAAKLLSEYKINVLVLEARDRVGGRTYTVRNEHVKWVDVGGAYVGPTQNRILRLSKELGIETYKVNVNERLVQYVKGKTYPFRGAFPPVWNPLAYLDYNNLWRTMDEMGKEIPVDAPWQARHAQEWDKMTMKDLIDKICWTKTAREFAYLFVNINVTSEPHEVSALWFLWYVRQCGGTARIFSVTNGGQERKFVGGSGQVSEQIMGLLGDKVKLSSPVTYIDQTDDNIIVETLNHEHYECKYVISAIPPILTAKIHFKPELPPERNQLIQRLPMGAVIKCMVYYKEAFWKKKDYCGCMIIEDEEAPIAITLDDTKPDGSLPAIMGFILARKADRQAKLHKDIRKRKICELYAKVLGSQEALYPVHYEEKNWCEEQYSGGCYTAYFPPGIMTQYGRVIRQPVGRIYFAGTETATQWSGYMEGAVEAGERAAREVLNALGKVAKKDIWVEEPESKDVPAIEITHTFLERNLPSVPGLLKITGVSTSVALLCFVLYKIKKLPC

[4] = target: D(2) dopamine receptor (Homo sapiens, UniProt P14416); experiment: Displacement of [3H]7-OH-DPAT from human D2S receptor high affinity site expressed in HEK293 cells; format: cell-based
[5] = system: Rattus norvegicus; experiment: Reduction in DOPAC level in Sprague-Dawley rat striatum at 33 umol/kg, sc measured after 1 hr relative to control; format: functional; parameters: scale not given: the % may be the effect or the level left

Chain of D(2) dopamine receptor (P14416 whole entry): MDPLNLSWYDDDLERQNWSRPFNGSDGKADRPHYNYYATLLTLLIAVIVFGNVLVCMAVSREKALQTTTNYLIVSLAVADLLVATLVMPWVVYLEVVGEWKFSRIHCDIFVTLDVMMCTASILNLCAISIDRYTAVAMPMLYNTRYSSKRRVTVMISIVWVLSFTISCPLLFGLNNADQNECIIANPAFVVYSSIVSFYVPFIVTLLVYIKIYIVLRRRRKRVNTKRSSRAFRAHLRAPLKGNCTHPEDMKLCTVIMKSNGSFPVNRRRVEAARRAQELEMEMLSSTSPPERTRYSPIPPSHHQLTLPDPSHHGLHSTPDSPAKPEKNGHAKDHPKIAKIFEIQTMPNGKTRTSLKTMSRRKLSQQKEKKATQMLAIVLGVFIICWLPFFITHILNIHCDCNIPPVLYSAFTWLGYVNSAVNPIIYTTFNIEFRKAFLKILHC

Structure (SMILES)	DOPAC level (% of control) [2]	Ki [4]	further results
CCCN1CCN(c2cccc(C(F)(F)F)c2)CC1			Activity [1]: 315%
CCCN1CCN(c2cccc(OS(C)(=O)=O)c2)CC1			Activity [1]: 254%
CCCN1CCN(c2cccc(OC)c2)CC1	255%	0.3 µM	Ki ([3]; read-out: Ki): 16 µM
CCCN1CCC(c2ccccc2C(F)(F)F)CC1	254%		
CCCN1CCC(c2cccc(S(=O)(=O)C(C)C)c2)CC1	205%		
CCCN1CCC(c2cccc(S(=O)(=O)C(F)(F)F)c2)CC1	258%		
CCCN1CCN(c2ccccc2S(C)(=O)=O)CC1	283%	0.58 µM	Ki ([3]; read-out: Ki): > 583 µM; Ki ([3]; read-out: pKi (converted)): > 631 µM
CCCN1CCC(c2ccccc2OS(=O)(=O)C(F)(F)F)CC1	270%		
CCCN1CCC(c2cccc(OC(C)C)c2)CC1	112%		
CCCN1CCC(c2cccc(OS(=O)(=O)C(F)(F)F)c2)CC1	241%		
CCCN1CCN(c2cccc(S(=O)(=O)c3ccccc3)c2)CC1	152%		
CCCN1CCN(c2ccccc2O)CC1	270%		
CCCN1CCC(c2cccc(S(=O)(=O)C3CCCC3)c2)CC1	170%	3.8 µM	Ki ([3]; read-out: Ki): > 583 µM; Ki ([3]; read-out: pKi (converted)): > 631 µM
CCCN1CCC(c2ccc(Cl)cc2)CC1		0.9 µM	
CCCN1CCC(c2cccc(N3CCOCC3)c2)CC1	105%		
CCCN1CCN(c2cccc(Cl)c2)CC1	250%		
CCCN1CCC(c2cccc(C)c2)CC1	115%		
CCCN1CCN(c2cccc(O)c2)CC1			Ki ([3]; read-out: Ki): > 583 µM; Ki ([3]; read-out: pKi (converted)): > 631 µM

Structure (SMILES)	DOPAC level (% of control) [2]	Ki [4]	further results
CCCN1CCC(c2cccc(OC)c2)CC1	140%	1.5 µM	Ki ([3]; read-out: Ki): 18 µM
CCCN1CCN(c2cccc(S(C)(=O)=O)c2)CC1			Ki ([3]; read-out: Ki): 126 µM
CCCN1CCC(c2ccccc2)CC1	131%	0.17 µM	
CCCN1CCC(c2cccc(C#N)c2)CC1	275%		
CCCN1CCC(c2ccccc2OC)CC1		0.012 µM	Ki ([3]; read-out: Ki): 2.4 µM; Activity [5]: 277%
CCCN1CCN(c2ccc(OC)cc2)CC1		6.4 µM	
CCCN1CCN(c2cccc(C#N)c2)CC1	314%	0.27 µM	Ki ([3]; read-out: Ki): > 583 µM; Ki ([3]; read-out: pKi (converted)): > 631 µM
CCCN1CCN(c2ccccc2)CC1	181%	0.47 µM	
CCCN1CCN(c2ccccc2Cl)CC1	368%		
CCCN1CCC(c2cccc(C(F)(F)F)c2)CC1	260%	0.18 µM	Ki ([3]; read-out: Ki): 128 µM
CCCN1CCN(c2ccccc2C)CC1	327%		
CCCN1CCN(c2cccc(C(C)=O)c2)CC1	221%		
CCCN1CCN(c2ccccc2C#N)CC1			Activity [5]: 313%
CCCN1CCN(c2cccc(OS(=O)(=O)C(F)(F)F)c2)CC1	285%		
CCCN1CCC(c2ccc(OC)cc2)CC1		23 µM	
CCCN1CCC(c2cccc(OC(C)(C)C)c2)CC1	196%		
CCCN1CCN(c2ccccc2OC)CC1	370%	0.022 µM	Ki ([3]; read-out: Ki): > 583 µM; Ki ([3]; read-out: pKi (converted)): > 631 µM
